# According to the NIST ThermoML archive (doi:10.1021/je060257y):
# Numbers after ± are expanded uncertainties.
# Assay: molar heat capacity at constant pressure
# Settings: 101.33 kPa, Crystal
Structure (SMILES),molar heat capacity at constant pressure (298.15 K) [J/K/mol],molar heat capacity at constant pressure (303.15 K) [J/K/mol],molar heat capacity at constant pressure (308.15 K) [J/K/mol],molar heat capacity at constant pressure (313.15 K) [J/K/mol],molar heat capacity at constant pressure (318.15 K) [J/K/mol],molar heat capacity at constant pressure (323.15 K) [J/K/mol],molar heat capacity at constant pressure (328.15 K) [J/K/mol],molar heat capacity at constant pressure (333.15 K) [J/K/mol],molar heat capacity at constant pressure (338.15 K) [J/K/mol],molar heat capacity at constant pressure (343.15 K) [J/K/mol]
"O=[N+]([O-])c1cnc(O)nc1O [2,4-pyrimidinedione, 5-nitro-]",167.2 ± 5.2,167.9 ± 5.2,169.9 ± 5.3,169.9 ± 5.3,171.1 ± 5.3,171.8 ± 5.3,173 ± 5.4,173.1 ± 5.4,174.5 ± 5.4,174.5 ± 5.4
"Cc1nc(O)nc(O)c1C [2,4-dihydroxy-5,6-dimethylpyrimidine]",191.1 ± 5.9,198.3 ± 6.1,203.2 ± 6.3,208 ± 6.4,212 ± 6.6,215.6 ± 6.7,219.1 ± 6.8,223.3 ± 6.9,229.3 ± 7.1,234.1 ± 7.3
O=c1[nH]cc(I)c(=O)[nH]1 [5-iodouracil],150.9 ± 4.7,153.9 ± 4.8,156.8 ± 4.9,159.8 ± 5,162.8 ± 5,165.8 ± 5.1,168.6 ± 5.2,170.3 ± 5.3,172.7 ± 5.4,177.5 ± 5.5
"CCc1cc(=O)n(C)c(=O)n1C [2,4(1H,3H)-pyrimidinedione, 6-ethyl-1,3-dimethyl-]",241.8 ± 9.6,243.4 ± 9.7,245.3 ± 9.7,246.3 ± 9.7,248.3 ± 9.8,259.6 ± 10,,,,
